Experimental data reported in patent publication US9656990B2, “Cathepsin cysteine protease inhibitors” (Merck Sharp & Dohme Corp., priority 2014, dated 2017).

Assays:
human cathepsin K = human cathepsin K (UniProt P43236, Y175D/V274L, species not given); assay: Cathepsin K Assay; format: biochemical; settings: IP from dose response curve; Z-Leu-Arg-AMC substrate, pH 5.5; read-out: hrbCat K (IP (nM))
human cathepsin F = target: T1, human cathepsin F (Homo sapiens, UniProt Q9UBX1); assay: Cathepsin F Assay; format: biochemical; settings: IP from dose response curve; Z-Phe-Arg-AMC substrate, pH 5.5; read-out: hCat F (IP (nM))
T1 sequence (Q9UBX1 271-484): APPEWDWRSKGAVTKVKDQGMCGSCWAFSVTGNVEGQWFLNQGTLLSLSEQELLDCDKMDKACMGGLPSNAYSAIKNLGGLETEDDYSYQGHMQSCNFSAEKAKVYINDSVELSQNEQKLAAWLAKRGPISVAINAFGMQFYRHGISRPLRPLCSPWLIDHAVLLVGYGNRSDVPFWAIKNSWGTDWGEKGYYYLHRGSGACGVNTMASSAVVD
How it was run: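 Human cathepsin F (10 nM) preincubated 15 min at room temperature with compounds in 50 mM MES pH 5.5, 2.5 mM EDTA, 2.5 mM DTT, 10% DMSO. Z-Phe-Arg-AMC (8 μM) added; AMC release read by fluorescence (Ex 360/Em 460 nm) over 20 min, inhibition fit to dose-response model.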

Structure (SMILES)	IC50 (human cathepsin K) [nM]	IC50 (human cathepsin F) [nM]
N#Cc1ccc(-n2cc(-c3ccc(N4CCS(=O)(=O)CC4)cc3)c([C@@H]3CCCC[C@H]3C(=O)NC3(C#N)CC3)n2)c(F)c1 [Example 132, (1R,2R)-2-(1-(4-cyano-2-fluorophenyl)-4-(4-(1,1-dioxidothiomorpholino)phen-yl)-1H-pyrazol-3-yl)-N-(1-cyanocyclopropyl)cyclohex-anecarboxamide]	2.51	733
N#CC1(NC(=O)[C@@H]2C[C@@H](F)CC[C@H]2c2nn(-c3ccc(F)cn3)cc2-c2ccc(N3CCS(=O)(=O)CC3)cc2)CC1 [Example 10, (1R,2R,5S)—N-(1-Cyanocyclopropyl)-2-(4-(4-(1,1-dioxidothiomorpholino)phenyl)-1-(5-fluoropyridin-2-yl)-1H-pyrazol-3-yl)-5-fluorocyclohexanecarboxamide]	0.89	1050
N#CC1(NC(=O)[C@@H]2CCC(F)(F)C[C@H]2c2nn(-c3ccc(F)cn3)cc2-c2ccc(N3CCS(=N)(=O)CC3)cc2)CC1 [Example 20, (1R,2R)-N-(1-cyanocyclopropyl)-4,4-difluoro-2-(1-(5-fluoropyridin-2-yl)-4-(4-(1-imino-1-oxidothiomorpholino)phenyl)-1H-pyrazol-3-yl)cyclohexanecarboxamide]	6.81	1820
N#CC1(NC(=O)[C@@H]2C[C@@H](F)CC[C@H]2c2nn(-c3ncccc3F)cc2-c2ccc(N3CCS(=O)(=O)CC3)cc2)CC1 [Example 29, (1R,2R,5S)-N-(1-cyanocyclopropyl)-2-(4-(4-(1,1-dioxidothiomorpholino)phen-yl)-1-(3-fluoropyridin-2-yl)-1H-pyrazol-3-yl)-5-fluorocyclohexanecarboxamide]	6.2	6780
N#CC1(NC(=O)[C@@H]2CCCC[C@H]2c2nn(-c3ccc(F)cc3)cc2-c2ccc(C(=O)N3CCOCC3)cc2)CC1 [Example 88, (1R,2R)-N-(1-cyanocyclopropyl)-2-(1-(4-fluorophenyl)-4-(4-(morpholine-4-carbonyl)phenyl)-1H-pyrazol-3-yl)cyclohexanecarboxamide]	6.9	1010
Cc1c(-c2ccc(N3CCS(=O)(=O)CC3)cc2)c([C@@H]2CCCC[C@H]2C(=O)N[C@H](C#N)C(C)C)nn1-c1ncccc1F [Example 43, (1R,2R)-N-((S)-1-cyano-2-methylpropyl)-2-(4-(4-(1,1-dioxidothiomorpholino)phen-yl)-1-(3-fluoropyridin-2-yl)-5-methyl-1H-pyrazol-3-yl)cyclohexanecarboxamide]	12.1	4550
N#Cc1cc(F)ccc1-n1cc(-c2ccc(N3CCS(=O)(=O)CC3)cc2)c([C@@H]2CCCC[C@H]2C(=O)NC2(C#N)CC2)n1 [Example 106, (1R,2R)-2-(1-(2-cyano-4-fluorophenyl)-4-(4-(1,1-dioxidothiomorpholino)phen-yl)-1H-pyrazol-3-yl)-N-(1-cyanocyclopropyl)cyclohex-anecarboxamide]	2.88	1920
N#CC1(NC(=O)[C@@H]2CCCC[C@H]2c2nn(-c3ccc(C(F)(F)F)cn3)cc2-c2ccc(N3CCS(=O)(=O)CC3)cc2)CC1 [Example 143, (1R,2R)-N-(1-cyanocyclopropyl)-2-(4-(4-(1,1-dioxidothiomorpholino)phen-yl)-1-(5-(trifluoromethyl)pyridin-2-yl)-1H-pyrazol-3-yl)cyclohexanecarboxamide]	1.17	395
N#CC1(NC(=O)[C@@H]2CCCC[C@H]2c2nn3ccccc3c2-c2ccc(N3CCS(=O)(=O)CC3)cc2)CC1 [Example 21, (1R,2R)-N-(1-cyanocyclopropyl)-2-(3-(4-(1,1-dioxidothiomorpholino)phen-yl)pyrazolo[1,5-a]pyridin-2-yl)cyclohexanecarboxamide]	9.56	6910
